Measured values taken from PMC11790914, “Chemogenomics for steroid hormone receptors (NR3)” (Communications Chemistry, 2025).
Where “and” joins values, the source holds several entries; their conditions need not be identical. Identical values can stand only once.

Key:
CDK2 = molecular target: T1, CDK2 (Homo sapiens, UniProt P24941); experiment: Liability panel screening by DSF: CDK2; assay type: binding; details: DSF, 20 µM, n=2; read-out: Mean ΔTM CDK2
T1 construct: made in house
How it was run: (§1)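 Recombinant protein at 2 µM in 10 mM HEPES pH 7.5 with 500 mM NaCl was mixed with SYPRO Orange (1:1000) and heated at 3 °C/min up to 85 °C. Tm was taken as the Boltzmann-fit inflection point. Shifts are ∆Tm in K from technical duplicates.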

MAPK1 = molecular target: T2, MAPK1 (Homo sapiens, UniProt P28482); experiment: Liability panel screening by DSF: MAPK1; assay type: binding; details: DSF, 20 µM, n=2; read-out: Mean ΔTM MAPK1
T2 construct: made in house
T2 sequence (P28482 whole entry, species assumed): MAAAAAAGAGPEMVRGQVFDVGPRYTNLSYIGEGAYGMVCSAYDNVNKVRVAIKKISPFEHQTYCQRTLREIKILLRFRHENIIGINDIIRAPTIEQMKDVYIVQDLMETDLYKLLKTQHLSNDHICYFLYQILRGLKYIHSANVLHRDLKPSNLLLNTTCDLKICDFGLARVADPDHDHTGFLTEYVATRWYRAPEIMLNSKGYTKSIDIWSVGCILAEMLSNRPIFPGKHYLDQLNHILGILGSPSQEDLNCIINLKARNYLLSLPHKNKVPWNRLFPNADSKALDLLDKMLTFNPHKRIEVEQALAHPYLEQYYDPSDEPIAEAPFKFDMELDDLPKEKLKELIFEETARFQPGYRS
How it was run: as §1

HEK293T cells [1] = experiment: Cytotoxicity: growth-rate (change in confluence over 24 h); details: 3 µM, normalized to 0.1% DMSO control, single replicates (n=1...)
BRD4 = molecular target: T3, BRD4 (Homo sapiens, UniProt O60885); experiment: Liability panel screening by DSF: BRD4; assay type: binding; details: DSF, 20 µM, n=2; read-out: Mean ΔTM BRD4
T3 construct: This panel comprised ten highly ligandable kinases and bromodomains; made in house
How it was run: as §1

Gal4-VP16 = assay type: cell-based; details: 3 µM; vs. DMSO ctrl; single replicates n=1-3
CSNK1D = molecular target: T4, CSNK1D (Homo sapiens, UniProt P48730); experiment: Liability panel screening by DSF: CSNK1D; assay type: binding; details: DSF, 20 µM, n=2; read-out: Mean ΔTM CSNK1D
T4 construct: made in house
T4 sequence (P48730 whole entry, species assumed): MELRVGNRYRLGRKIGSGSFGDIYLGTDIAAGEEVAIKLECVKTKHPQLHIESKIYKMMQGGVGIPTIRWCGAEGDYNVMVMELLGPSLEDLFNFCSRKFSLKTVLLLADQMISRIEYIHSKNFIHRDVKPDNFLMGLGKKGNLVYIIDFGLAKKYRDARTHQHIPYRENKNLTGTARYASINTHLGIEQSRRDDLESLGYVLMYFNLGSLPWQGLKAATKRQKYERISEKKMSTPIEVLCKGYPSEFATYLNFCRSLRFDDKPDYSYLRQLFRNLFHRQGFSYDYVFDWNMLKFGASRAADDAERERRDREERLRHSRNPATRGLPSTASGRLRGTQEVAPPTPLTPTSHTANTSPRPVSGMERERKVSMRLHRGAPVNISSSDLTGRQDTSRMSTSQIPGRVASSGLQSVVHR
How it was run: as §1

[2] = system: NF-κB activity in HEK293 NF-κB reporter cells; experiment: NF-kB activity assay (GFP reporter, ionomycin/PMA); assay type: cell-based; details: n=3
How it was run: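 HEK293 NF-κB GFP reporter cells given compound in 0.1% DMSO for 4 h, then stimulated with ionomycin 100 ng/mL plus PMA 10 ng/mL. Imaged every 90 min over 24 h; GFP-positive cell count normalized to confluence, three independent biological replicates.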

FGFR3 = molecular target: T5, FGFR3 (Homo sapiens, UniProt P22607); experiment: Liability panel screening by DSF: FGFR3; assay type: binding; details: DSF, 20 µM, n=2; read-out: Mean ΔTM FGFR3
T5 construct: made in house
T5 sequence (P22607 23-806, species assumed): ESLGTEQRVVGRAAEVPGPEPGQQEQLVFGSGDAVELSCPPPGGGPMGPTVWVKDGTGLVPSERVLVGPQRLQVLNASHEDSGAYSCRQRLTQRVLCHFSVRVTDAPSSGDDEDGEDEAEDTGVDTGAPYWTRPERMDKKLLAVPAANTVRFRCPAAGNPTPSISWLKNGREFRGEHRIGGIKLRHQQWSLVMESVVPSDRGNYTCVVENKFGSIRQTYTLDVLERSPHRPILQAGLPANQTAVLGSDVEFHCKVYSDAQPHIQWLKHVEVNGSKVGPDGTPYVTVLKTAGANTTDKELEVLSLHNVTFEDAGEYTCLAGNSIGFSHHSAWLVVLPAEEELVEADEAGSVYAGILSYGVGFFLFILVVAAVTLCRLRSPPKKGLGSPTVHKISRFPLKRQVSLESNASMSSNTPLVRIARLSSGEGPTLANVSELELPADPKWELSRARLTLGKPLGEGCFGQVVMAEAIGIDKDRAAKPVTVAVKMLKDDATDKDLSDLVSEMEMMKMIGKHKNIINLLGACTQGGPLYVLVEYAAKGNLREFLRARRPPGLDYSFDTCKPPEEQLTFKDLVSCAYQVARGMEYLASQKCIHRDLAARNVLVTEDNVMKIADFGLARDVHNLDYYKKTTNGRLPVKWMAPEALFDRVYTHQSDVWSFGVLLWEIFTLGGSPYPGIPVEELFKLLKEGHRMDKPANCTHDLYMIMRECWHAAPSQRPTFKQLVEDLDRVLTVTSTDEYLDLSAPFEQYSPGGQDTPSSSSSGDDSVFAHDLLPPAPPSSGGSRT
How it was run: as §1

NR3B2 (ERRβ) = details: ref Supplementary Table 1; cited from earlier work
[3] = system: ATF6 activity in Hela ATF6 reporter cells; experiment: Endoplasmic reticulum stress assay (ATF6 Renilla luciferase reporter, tunicamycin); assay type: cell-based
How it was run: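 HeLa ATF6 Renilla reporter cells were pretreated 4 h with compounds in 0.1% DMSO, then stimulated with tunicamycin (100 ng/mL) for 18 h. Renilla luminescence (DualGlo) was normalized to 0.1% DMSO control; five independent experiments.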

BRPF1 = molecular target: T6, BRPF1 (Homo sapiens, UniProt P55201); experiment: Liability panel screening by DSF: BRPF1; assay type: binding; details: DSF, 20 µM, n=2; read-out: Mean ΔTM BRPF1
T6 construct: This panel comprised ten highly ligandable kinases and bromodomains; made in house
T6 sequence (P55201 628-732 limits assumed): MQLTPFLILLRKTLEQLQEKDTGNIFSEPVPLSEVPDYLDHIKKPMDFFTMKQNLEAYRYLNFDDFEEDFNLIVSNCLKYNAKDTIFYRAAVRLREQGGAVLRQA
How it was run: as §1

TRIM24 = molecular target: T7, TRIM24 (Homo sapiens, UniProt O15164); experiment: Liability panel screening by DSF: TRIM24; assay type: binding; details: DSF, 20 µM, n=2; read-out: Mean ΔTM TRIM24
T7 construct: This panel comprised ten highly ligandable kinases and bromodomains; made in house
T7 sequence (O15164 899-1004 limits assumed): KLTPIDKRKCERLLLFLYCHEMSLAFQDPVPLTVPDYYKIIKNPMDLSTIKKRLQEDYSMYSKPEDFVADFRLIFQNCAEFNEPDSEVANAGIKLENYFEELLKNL
How it was run: as §1

HEK293T cells [4] = experiment: Cytotoxicity: apoptosis induction (caspase-3/7 DEVD fluorogenic DNA dye); details: 3 µM; HEK293T, 24 h; apoptotic cell count normalized to 0.1% DMSO; single replicates
NR3B3 (ERRγ) = details: ref Supplementary Table 1; cited from earlier work
HEK293T cells [5] = experiment: Cytotoxicity: metabolic activity (WST-8 / CCK-8 assay); details: 3 µM; HEK293T, 24 h; WST-8; normalized to 0.1% DMSO; single replicates
Procedure: Cells were incubated with the test compounds at the indicated concentrations solubilized with 0.1% DMSO for 24 h. Growth-rate was determined based on the change in confluence over 24 h normalized to the change in confluence of cells treated with the 0.1% DMSO control (n = 10). Metabolic activity was determined with a water-soluble tetrazolium-8 (WST-8) assay (n = 8) after 24 h treatment. Apoptotic cells were detected with a fluorogenic DNA dye coupled to the caspase-3/7 recognition sequence (DEVD) after 24 h treatment and the apoptotic cell count was normalized to 0.1% DMSO treated cells (n = 6).
HEK293T cells (German Collection of Microorganisms and Cell Culture GmbH, DSMZ; #ACC305) were cultured in DMEM high glucose, supplemented with 10% fetal calf serum (FCS), sodium pyruvate (1 mM), penicillin (100 µ/mL) and streptomycin (100 µg/mL) at 37 °C and 5% (v/v) CO2, and seeded in pre-coated (10 µg/mL collagen G solution (Merck KgaA; #L7213) for 30 min at 37 °C) 96-well plates (2 × 10^5 cells per well). After 24 h, the cells were treated with the respective NR3 CG compound candidate at the recommended concentration, bexarotene (100 µM) or doxorubicin (30 µM) as positive controls in DMEM high glucose supplemented with 0.1% FCS, penicillin (100 µ/mL), streptomycin (100 µg/mL) and 0.1% DMSO, or 0.1% DMSO alone as an untreated control. Each sample was prepared in at least four biologically independent replicates. […] Thereafter, the medium was aspirated and the cells were incubated for 3 h with 90 µL DMEM high glucose supplemented with 0.2% FCS, penicillin (100 µ/mL) and streptomycin (100 µg/mL) and additionally containing 10 µL Cell Counting Kit 8 solution (CCK-8; MedChemExpress, Monmouth Junction, New York, USA; #HY-K0301), and absorbance was measured at 1 h, 2 h and 3 h of incubation at 450 nm on a Tecan Spark Cyto to assess metabolic activity of the cells. Before drug administration, after the first medium exchange, 24 h after drug administration, and after fluorescence imaging cell confluence was assessed using the Tecan Spark Cyto, to account for changes in cell confluence due to drug administration and cell handling. Compound effects on cell confluence, apoptosis, metabolic activity and necrosis were normalized to the vehicle control of each biological replicate individually.

AURKA = molecular target: T8, AURKA (Homo sapiens, UniProt O14965); experiment: Liability panel screening by DSF: AURKA; assay type: binding; details: DSF, 20 µM, n=2; read-out: Mean ΔTM AURKA
T8 construct: made in house
T8 sequence (O14965 1-403): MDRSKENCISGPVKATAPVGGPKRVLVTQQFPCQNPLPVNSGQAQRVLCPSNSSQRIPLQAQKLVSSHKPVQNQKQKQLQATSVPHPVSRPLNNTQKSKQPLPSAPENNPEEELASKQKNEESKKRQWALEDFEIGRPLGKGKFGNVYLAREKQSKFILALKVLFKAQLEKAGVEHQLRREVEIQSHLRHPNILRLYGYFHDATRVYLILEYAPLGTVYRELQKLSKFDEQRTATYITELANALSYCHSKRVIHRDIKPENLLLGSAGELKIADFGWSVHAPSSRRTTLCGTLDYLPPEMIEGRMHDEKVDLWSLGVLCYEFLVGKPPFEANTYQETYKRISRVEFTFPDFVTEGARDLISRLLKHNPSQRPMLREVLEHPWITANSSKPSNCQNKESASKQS
How it was run: as §1

ABL1 = molecular target: T9, ABL1 (Homo sapiens, UniProt P00519); experiment: Liability panel screening by DSF: ABL1; assay type: binding; details: DSF, 20 µM, n=2; read-out: Mean ΔTM ABL1
T9 construct: made in house
T9 sequence (P00519 whole entry, species assumed): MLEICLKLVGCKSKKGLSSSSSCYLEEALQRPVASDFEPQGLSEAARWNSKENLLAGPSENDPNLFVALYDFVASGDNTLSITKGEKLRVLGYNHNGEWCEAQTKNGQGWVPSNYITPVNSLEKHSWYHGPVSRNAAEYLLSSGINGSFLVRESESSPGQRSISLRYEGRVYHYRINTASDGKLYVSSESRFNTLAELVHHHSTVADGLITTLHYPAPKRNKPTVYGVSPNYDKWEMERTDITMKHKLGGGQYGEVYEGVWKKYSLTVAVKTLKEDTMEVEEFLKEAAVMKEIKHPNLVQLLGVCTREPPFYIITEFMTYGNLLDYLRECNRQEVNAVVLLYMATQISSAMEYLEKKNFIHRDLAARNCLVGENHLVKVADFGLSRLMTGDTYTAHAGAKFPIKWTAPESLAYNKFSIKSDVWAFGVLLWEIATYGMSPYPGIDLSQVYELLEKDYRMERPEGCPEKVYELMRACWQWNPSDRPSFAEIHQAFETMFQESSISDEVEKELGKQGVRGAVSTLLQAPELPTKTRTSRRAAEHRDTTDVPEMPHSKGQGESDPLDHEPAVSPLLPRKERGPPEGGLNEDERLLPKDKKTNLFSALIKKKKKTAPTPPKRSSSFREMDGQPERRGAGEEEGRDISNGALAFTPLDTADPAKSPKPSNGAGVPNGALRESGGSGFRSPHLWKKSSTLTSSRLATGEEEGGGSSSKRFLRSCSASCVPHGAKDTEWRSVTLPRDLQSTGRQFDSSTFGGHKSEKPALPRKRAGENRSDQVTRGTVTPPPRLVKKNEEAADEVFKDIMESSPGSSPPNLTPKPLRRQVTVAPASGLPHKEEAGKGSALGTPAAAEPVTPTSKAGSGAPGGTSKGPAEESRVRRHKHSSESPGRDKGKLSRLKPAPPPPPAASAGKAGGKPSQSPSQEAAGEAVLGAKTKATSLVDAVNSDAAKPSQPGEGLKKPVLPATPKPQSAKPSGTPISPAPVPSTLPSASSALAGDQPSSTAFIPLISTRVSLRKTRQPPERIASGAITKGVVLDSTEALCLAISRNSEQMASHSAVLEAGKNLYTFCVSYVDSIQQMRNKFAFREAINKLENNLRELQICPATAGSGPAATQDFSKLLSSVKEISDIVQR
How it was run: as §1

HEK293T cells [6] = experiment: Cytotoxicity: necrosis induction (red fluorescent dye for permeable plasma membranes); assay type: cell-based; details: 3 µM, 24 h, necrotic cell count normalized to 0.1% DMSO, single replicates;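 also: compounds applied in DMEM high glucose with 0.1% FCS and 0.1% DMSO, necrotic HEK293T cells counted by red staining of cells whose plasma membranes had become permeable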
GSK3B = molecular target: T10, GSK3B (Homo sapiens, UniProt P49841); experiment: Liability panel screening by DSF: GSK3B; assay type: binding; details: DSF, 20 µM, n=2; read-out: Mean ΔTM GSK3B
T10 construct: made in house
T10 sequence (P49841 whole entry, species assumed): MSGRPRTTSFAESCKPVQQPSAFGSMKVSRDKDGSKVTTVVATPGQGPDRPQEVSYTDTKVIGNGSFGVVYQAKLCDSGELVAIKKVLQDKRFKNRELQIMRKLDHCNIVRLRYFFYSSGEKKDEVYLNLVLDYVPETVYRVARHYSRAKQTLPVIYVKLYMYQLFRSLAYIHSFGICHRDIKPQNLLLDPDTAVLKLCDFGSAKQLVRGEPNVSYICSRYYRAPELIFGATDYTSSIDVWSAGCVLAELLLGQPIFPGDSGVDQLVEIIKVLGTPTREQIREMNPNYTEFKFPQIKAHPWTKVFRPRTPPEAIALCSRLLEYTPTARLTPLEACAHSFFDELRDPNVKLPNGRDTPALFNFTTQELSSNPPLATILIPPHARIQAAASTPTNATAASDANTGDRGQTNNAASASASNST

## CC(C)c1ccc(/C=N/NC(=O)c2ccc(O)cc2)cc1 [GSK4716]
CDK2
  ΔTm at 20 µM: 1.04 °C
MAPK1
  ΔTm at 20 µM: 0.09 °C
HEK293T cells [1]
  Growth rate [GR]: 0.56 and 4.17 and 0.59 and 0.95 and 0.79 and 0.39 and 0.32 and 1.23 and 0.96 and 33.22
BRD4
  ΔTm at 20 µM: -0.72 °C
Gal4-VP16
  VP16 control [fold reporter gene activity]: 1.46 fold reporter gene activity and 1.30 fold reporter gene activity and 1.47 fold reporter gene activity
CSNK1D
  ΔTm at 20 µM: -0.73 °C
[2]; 3 µM, 1,5 h
  Mean NFκB response: 3350.67 GFP+-cells/confluence ∙ 1000
[2]; 3 µM, 4,5 h
  Mean NFκB response: 4011.96 GFP+-cells/confluence ∙ 1000
[2]; 3 µM, 7,5 h
  Mean NFκB response: 8902.65 GFP+-cells/confluence ∙ 1000
[2]; 3 µM, 10,5 h
  Mean NFκB response: 19241.33 GFP+-cells/confluence ∙ 1000
[2]; 3 µM, 13,5 h
  Mean NFκB response: 27824.67 GFP+-cells/confluence ∙ 1000
[2]; 3 µM, 16,6 h
  Mean NFκB response: 34184.33 GFP+-cells/confluence ∙ 1000
[2]; 3 µM, 19,5 h
  Mean NFκB response: 38593.33 GFP+-cells/confluence ∙ 1000
[2]; 3 µM, 22,5 h
  Mean NFκB response: 41930.00 GFP+-cells/confluence ∙ 1000
[2]; 3 µM, 3 h
  Mean NFκB response: 3264.72 GFP+-cells/confluence ∙ 1000
[2]; 3 µM, 6 h
  Mean NFκB response: 5255.77 GFP+-cells/confluence ∙ 1000
[2]; 3 µM, 9 h
  Mean NFκB response: 14135.33 GFP+-cells/confluence ∙ 1000
[2]; 3 µM, 12 h
  Mean NFκB response: 23629.33 GFP+-cells/confluence ∙ 1000
[2]; 3 µM, 15 h
  Mean NFκB response: 31599.67 GFP+-cells/confluence ∙ 1000
[2]; 3 µM, 18 h
  Mean NFκB response: 36410.00 GFP+-cells/confluence ∙ 1000
[2]; 3 µM, 21 h
  Mean NFκB response: 40543.33 GFP+-cells/confluence ∙ 1000
[2]; 3 µM, 24 h
  Mean NFκB response: 43546.67 GFP+-cells/confluence ∙ 1000
FGFR3
  ΔTm at 20 µM: 0.7 °C
NR3B2 (ERRβ)
  rel. activity from literature, NR3B2 (ERRβ): fold activation: 10 fold
[3]; Hela ATF6 reporter cells, tunicamycin 100 ng/mL, 18 h, compounds at recommended concentrations, n = 5
  ATF6 activity (tunicamycin-induced endoplasmic reticulum stress): strongly ameliorated the tunicamycin-induced endoplasmic reticulum stress
[3]; Homo sapiens, HeLa, 3 µM, single replicates n=1 to n=5, read-out: ER stress [rel. ATF6 activity]
  activity at 3 µM: 15%
BRPF1
  ΔTm at 20 µM: 0.6 °C
TRIM24
  ΔTm at 20 µM: 0.64 °C
HEK293T cells [4]
  Apoptosis induction [AI]: 1.16 and 0.91 and 0.96 and 0.89 and 0.51 and 0.66
NR3B3 (ERRγ)
  rel. activity from literature, NR3B3 (ERRγ): fold activation: 6 fold
HEK293T cells [5]
  Metabolic activity [MA]: 1.04 and 0.92 and 0.86 and 0.83 and 0.84 (2×) and 0.81 and 0.76
AURKA
  ΔTm at 20 µM: 0.71 °C
ABL1
  ΔTm at 20 µM: 1.07 °C
HEK293T cells [6]
  Necrosis induction [NI]: 0.73 and 0.72 and 1.06 and 0.88
GSK3B
  ΔTm at 20 µM: -3.45 °C
